# Experimental data as given in ChEMBL document CHEMBL1201862, “PubChem BioAssay data set” (2004).
#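 Tested at 5 concentrations; 48 h exposure; 96-well plates; endpoints linearly interpolated, else capped at highest concentration. The concentration for 50% growth inhibition is given as GI50.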 Calls of active or inactive are those of the source. No stated cut-off is given here; in the data, active = GI50 up to about 1.1 µM and inactive = higher. Square brackets hold non-standard residues; d marks the D form. Peptide text beside a SMILES is read from it.
# Key:
# Assay in all cases: inhibition of tumour cell growth, NCI panel, 48 h
# OVCAR-8 = tested on: OVCAR-8
# TK-10 = tested on: TK-10
# CAKI-1 = tested on: CAKI-1
# NCI-H460 = tested on: NCI-H460
# SF-539 = tested on: SF-539
# SNB-19 = tested on: SNB-19
# T47D = tested on: T47D
# SF-268 = tested on: SF-268
# NCI/ADR-RES = tested on: NCI/ADR-RES
# HCC 2998 = tested on: HCC 2998
# LOX IMVI = tested on: LOX IMVI
# KM12 = tested on: KM12
# SW-620 = tested on: SW-620
# MOLT-4 = tested on: MOLT-4
# SK-MEL-28 = tested on: SK-MEL-28
# RXF 393 = tested on: RXF 393
# Hs-578T = tested on: Hs-578T
# SR = tested on: SR
# PC-3 = tested on: PC-3
# NCI-H226 = tested on: NCI-H226
Structure (SMILES),GI50 (OVCAR-8),GI50 (TK-10),GI50 (CAKI-1),GI50 (NCI-H460),GI50 (SF-539),GI50 (SNB-19),GI50 (T47D),GI50 (SF-268),GI50 (NCI/ADR-RES),GI50 (HCC 2998),GI50 (LOX IMVI),GI50 (KM12),GI50 (SW-620),GI50 (MOLT-4),GI50 (SK-MEL-28),GI50 (RXF 393),GI50 (Hs-578T),GI50 (SR),GI50 (PC-3),GI50 (NCI-H226)
O=[N+]([O-])c1ccc2sc(/C=N/c3ccccn3)cc2c1,35.2 µM (inactive),> 100 µM (inactive),> 100 µM (inactive),> 100 µM (inactive),> 100 µM (inactive),> 100 µM (inactive),26 µM (inactive),28.5 µM (inactive),97.7 µM (inactive),> 100 µM (inactive),31.9 µM (inactive),64.6 µM (inactive),21.7 µM (inactive),19.7 µM (inactive),> 100 µM (inactive),> 100 µM (inactive),47.6 µM (inactive),26.4 µM (inactive),69.5 µM (inactive),
O=C(Cn1c(=O)oc2ccc(C(=O)c3ccccc3Cl)cc21)c1ccc([N+](=O)[O-])cc1,24.7 µM (inactive),51.1 µM (inactive),38.5 µM (inactive),18.4 µM (inactive),28.8 µM (inactive),40.5 µM (inactive),8.11 µM (inactive),24.8 µM (inactive),22.6 µM (inactive),17.9 µM (inactive),17 µM (inactive),20.1 µM (inactive),26.8 µM (inactive),8.2 µM (inactive),37.8 µM (inactive),,37.2 µM (inactive),8.39 µM (inactive),22.8 µM (inactive),34.2 µM (inactive)
c1ccc(-c2ccc(/N=N/N3CCCC3)cc2)cc1,> 100 µM (inactive),> 100 µM (inactive),> 100 µM (inactive),> 100 µM (inactive),> 100 µM (inactive),> 100 µM (inactive),> 100 µM (inactive),> 100 µM (inactive),> 100 µM (inactive),,> 100 µM (inactive),> 100 µM (inactive),> 100 µM (inactive),> 100 µM (inactive),,> 100 µM (inactive),> 100 µM (inactive),7.11 µM (inactive),> 100 µM (inactive),> 100 µM (inactive)
COC(=O)/C=C/c1cnc2c(c1)oc(=O)n2C,> 100 µM (inactive),> 100 µM (inactive),> 100 µM (inactive),> 100 µM (inactive),> 100 µM (inactive),> 100 µM (inactive),> 100 µM (inactive),> 100 µM (inactive),> 100 µM (inactive),> 100 µM (inactive),> 100 µM (inactive),> 100 µM (inactive),> 100 µM (inactive),> 100 µM (inactive),> 100 µM (inactive),,> 100 µM (inactive),> 100 µM (inactive),> 100 µM (inactive),> 100 µM (inactive)
c1ccc2c(c1)ccc1nc3ccccn3c12,> 100 µM (inactive),> 100 µM (inactive),,> 100 µM (inactive),> 100 µM (inactive),> 100 µM (inactive),> 100 µM (inactive),> 100 µM (inactive),> 100 µM (inactive),> 100 µM (inactive),,> 100 µM (inactive),> 100 µM (inactive),> 100 µM (inactive),> 100 µM (inactive),> 100 µM (inactive),15.3 µM (inactive),> 100 µM (inactive),> 100 µM (inactive),> 100 µM (inactive)
S=P(C1CCCCC1)(C1CCCCC1)C(c1cccnc1)N1CCCC1 (stereo not drawn),23.8 µM (inactive),18.5 µM (inactive),17.4 µM (inactive),20.2 µM (inactive),16.7 µM (inactive),83.2 µM (inactive),31.9 µM (inactive),18.5 µM (inactive),19 µM (inactive),,7.18 µM (inactive),17.5 µM (inactive),36.2 µM (inactive),24 µM (inactive),> 100 µM (inactive),18.6 µM (inactive),35.4 µM (inactive),25.5 µM (inactive),18.3 µM (inactive),19.4 µM (inactive)
NNC(=O)CC(=O)Nc1ccc(C(=O)O)cc1,> 100 µM (inactive),> 100 µM (inactive),> 100 µM (inactive),> 100 µM (inactive),> 100 µM (inactive),> 100 µM (inactive),> 100 µM (inactive),> 100 µM (inactive),> 100 µM (inactive),,> 100 µM (inactive),> 100 µM (inactive),> 100 µM (inactive),> 100 µM (inactive),,> 100 µM (inactive),> 100 µM (inactive),> 100 µM (inactive),> 100 µM (inactive),> 100 µM (inactive)
CC(O)c1c2c(cc3c1CC1(C3)Cc3cc4c(c(C(C)O)c3C1)CCC4)CCC2 (stereo not drawn),46.2 µM (inactive),27.7 µM (inactive),,,22.4 µM (inactive),,11.9 µM (inactive),,19.1 µM (inactive),17.3 µM (inactive),17.5 µM (inactive),21.8 µM (inactive),,4.13 µM (inactive),,14.9 µM (inactive),22.5 µM (inactive),8.38 µM (inactive),18.7 µM (inactive),15.6 µM (inactive)
O=C1Nc2cccc(C(F)(F)F)c2/C1=N/Nc1ccccc1[N+](=O)[O-],26.1 µM (inactive),14.8 µM (inactive),> 100 µM (inactive),17.8 µM (inactive),,51.5 µM (inactive),56.6 µM (inactive),40.9 µM (inactive),30.8 µM (inactive),28.7 µM (inactive),17.1 µM (inactive),5.97 µM (inactive),33 µM (inactive),28.6 µM (inactive),63.5 µM (inactive),> 100 µM (inactive),27.3 µM (inactive),0.912 µM (active),37.6 µM (inactive),23.1 µM (inactive)
COc1cc2c(cc1NC(=O)c1ccccc1)c1c(n2S(=O)(=O)c2ccccc2)CCN(S(=O)(=O)c2ccccc2)C1,> 100 µM (inactive),,,> 100 µM (inactive),,> 100 µM (inactive),22.1 µM (inactive),> 100 µM (inactive),> 100 µM (inactive),> 100 µM (inactive),> 100 µM (inactive),> 100 µM (inactive),> 100 µM (inactive),> 100 µM (inactive),> 100 µM (inactive),> 100 µM (inactive),> 100 µM (inactive),> 100 µM (inactive),> 100 µM (inactive),> 100 µM (inactive)
O=[N+]([O-])c1ccc(Cl)c(CNc2ncnc3c2ncn3C2CCCCO2)c1 (stereo not drawn),53.6 µM (inactive),31 µM (inactive),> 100 µM (inactive),15.3 µM (inactive),22.8 µM (inactive),61.1 µM (inactive),55.3 µM (inactive),97.9 µM (inactive),25.1 µM (inactive),,56.4 µM (inactive),66.7 µM (inactive),35 µM (inactive),26.1 µM (inactive),89.5 µM (inactive),14.9 µM (inactive),> 100 µM (inactive),18.5 µM (inactive),39.3 µM (inactive),43.2 µM (inactive)
CN(C)/C=N\c1c(Br)cc(Br)c2nonc12,> 100 µM (inactive),> 100 µM (inactive),> 100 µM (inactive),> 100 µM (inactive),> 100 µM (inactive),> 100 µM (inactive),> 100 µM (inactive),> 100 µM (inactive),> 100 µM (inactive),> 100 µM (inactive),,> 100 µM (inactive),> 100 µM (inactive),> 100 µM (inactive),> 100 µM (inactive),> 100 µM (inactive),66.4 µM (inactive),> 100 µM (inactive),> 100 µM (inactive),> 100 µM (inactive)
COc1ccc(Cc2ccc3nc(O)cc(C)c3c2)cc1S(=O)(=O)O,> 100 µM (inactive),> 100 µM (inactive),> 100 µM (inactive),> 100 µM (inactive),> 100 µM (inactive),> 100 µM (inactive),> 100 µM (inactive),> 100 µM (inactive),> 100 µM (inactive),,> 100 µM (inactive),> 100 µM (inactive),> 100 µM (inactive),> 100 µM (inactive),> 100 µM (inactive),> 100 µM (inactive),> 100 µM (inactive),> 100 µM (inactive),> 100 µM (inactive),> 100 µM (inactive)
N=C(N)NCCC[C@H]1NC(=O)[C@@H](CCC(=O)O)NC(=O)[C@@H](CC(=O)O)NC(=O)[C@@H](CCC(=O)O)NC(=O)[C@H](Cc2c[nH]c3ccccc23)NC1=O (cyclo(W[dE][dD][dE][dR])),> 7.5 µM (inactive),> 7.5 µM (inactive),> 7.5 µM (inactive),> 7.5 µM (inactive),> 7.5 µM (inactive),> 7.5 µM (inactive),> 7.5 µM (inactive),> 7.5 µM (inactive),> 7.5 µM (inactive),> 7.5 µM (inactive),> 7.5 µM (inactive),> 7.5 µM (inactive),> 7.5 µM (inactive),> 7.5 µM (inactive),,> 7.5 µM (inactive),> 7.5 µM (inactive),> 7.5 µM (inactive),0.351 µM (active),> 7.5 µM (inactive)
Cc1cn([C@H]2C[C@H](N=[N+]=[N-])[C@@H](CO)O2)c(=O)[nH]c1=O [ZIDOVUDINE],180 µM (inactive),656 µM (inactive),> 97.1 µM (inactive),42.7 µM (inactive),,,> 100 µM (inactive),,> 96.4 µM (inactive),> 100 µM (inactive),> 83 µM (inactive),90.8 µM (inactive),> 100 µM (inactive),> 100 µM (inactive),> 100 µM (inactive),89.5 µM (inactive),885 µM (inactive),177 µM (inactive),885 µM (inactive),> 100 µM (inactive)
